# PubChem BioAssay (NCI)
#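 Cells were grown in 96-well plates and exposed to each compound for 48 hours at five concentrations; endpoints were interpolated linearly between bracketing concentrations, or set to the highest concentration if not reached. Definition used: TGI = concentration required for complete inhibition of growth.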
# Experiments:
# Experiment in all cases: NCI tumour cell line growth inhibition, 48 h
# K-562 leukemia = system: K-562 leukemia
# A549 NSCLC = system: A549 NSCLC
# M19-MEL melanoma = system: M19-MEL melanoma
# OVCAR-8 ovarian = system: OVCAR-8 ovarian
# SF-539 CNS = system: SF-539 CNS
# SF-268 CNS = system: SF-268 CNS
# TK-10 renal = system: TK-10 renal
# SK-OV-3 ovarian = system: SK-OV-3 ovarian
# SW-620 colon = system: SW-620 colon
# LXFL 529 NSCLC = system: LXFL 529 NSCLC
# OVCAR-3 ovarian = system: OVCAR-3 ovarian
# SF-295 CNS = system: SF-295 CNS
# CCRF-CEM leukemia = system: CCRF-CEM leukemia
# HT29 colon = system: HT29 colon
# SK-MEL-28 melanoma = system: SK-MEL-28 melanoma
# LOX IMVI melanoma = system: LOX IMVI melanoma
# A498 renal = system: A498 renal
# UACC-62 melanoma = system: UACC-62 melanoma
# MOLT-4 leukemia = system: MOLT-4 leukemia
# SK-MEL-2 melanoma = system: SK-MEL-2 melanoma
# NCI-H522 lung = system: NCI-H522 lung
# KM12 colon = system: KM12 colon
# EKVX NSCLC = system: EKVX NSCLC
# DLD-1 colon = system: DLD-1 colon
# 786-0 renal = system: 786-0 renal
# NCI-H226 lung = system: NCI-H226 lung
# OVCAR-4 ovarian = system: OVCAR-4 ovarian
# IGROV1 ovarian = system: IGROV1 ovarian
# HOP-62 NSCLC = system: HOP-62 NSCLC
# HCT-116 colon = system: HCT-116 colon
# SNB-75 CNS = system: SNB-75 CNS
# SR leukemia = system: SR leukemia
# DMS 273 small cell lung = system: DMS 273 small cell lung
# NCI-H460 lung = system: NCI-H460 lung
# XF 498 CNS = system: XF 498 CNS
# COLO 205 colon = system: COLO 205 colon
# RPMI-8226 leukemia = system: RPMI-8226 leukemia
# M14 melanoma = system: M14 melanoma
# ACHN renal = system: ACHN renal
# SK-MEL-5 melanoma = system: SK-MEL-5 melanoma
# NCI-H23 lung = system: NCI-H23 lung
# OVCAR-5 ovarian = system: OVCAR-5 ovarian
# HCC-2998 colon = system: HCC-2998 colon
# HCT-15 colon = system: HCT-15 colon
# MALME-3M melanoma = system: MALME-3M melanoma
# SNB-19 CNS = system: SNB-19 CNS
# SN12C renal = system: SN12C renal
# UACC-257 melanoma = system: UACC-257 melanoma
# SNB-78 CNS = system: SNB-78 CNS
# UO-31 renal = system: UO-31 renal
# U251 CNS = system: U251 CNS
# KM20L2 colon = system: KM20L2 colon
# RXF 393 renal = system: RXF 393 renal
# CAKI-1 renal = system: CAKI-1 renal
# HL-60(TB) leukemia = system: HL-60(TB) leukemia
# HOP-18 NSCLC = system: HOP-18 NSCLC
# RXF-631 renal = system: RXF-631 renal
# HOP-92 NSCLC = system: HOP-92 NSCLC
compound,measurement,setting,value
COC(=O)C(C(=O)C(=O)Nc1nc(=S)[nH][nH]1)c1csc(N)n1 (stereo not given),TGI,K-562 leukemia,> 100 µM
same,TGI,A549 NSCLC,> 100 µM
same,TGI,M19-MEL melanoma,> 100 µM
same,TGI,OVCAR-8 ovarian,> 100 µM
same,TGI,SF-539 CNS,> 100 µM
same,TGI,SF-268 CNS,> 100 µM
same,TGI,TK-10 renal,> 100 µM
same,TGI,SK-OV-3 ovarian,> 100 µM
same,TGI,SW-620 colon,> 100 µM
same,TGI,LXFL 529 NSCLC,> 100 µM
same,TGI,OVCAR-3 ovarian,> 100 µM
same,TGI,SF-295 CNS,> 100 µM
same,TGI,CCRF-CEM leukemia,> 100 µM
same,TGI,HT29 colon,> 100 µM
same,TGI,SK-MEL-28 melanoma,> 100 µM
same,TGI,LOX IMVI melanoma,> 100 µM
same,TGI,A498 renal,> 100 µM
same,TGI,UACC-62 melanoma,> 100 µM
same,TGI,MOLT-4 leukemia,> 100 µM
same,TGI,SK-MEL-2 melanoma,> 100 µM
same,TGI,NCI-H522 lung,> 100 µM
same,TGI,KM12 colon,> 100 µM
same,TGI,EKVX NSCLC,> 100 µM
same,TGI,DLD-1 colon,> 100 µM
same,TGI,786-0 renal,> 100 µM
same,TGI,NCI-H226 lung,> 100 µM
same,TGI,OVCAR-4 ovarian,> 100 µM
same,TGI,IGROV1 ovarian,> 100 µM
same,TGI,HOP-62 NSCLC,> 100 µM
same,TGI,HCT-116 colon,> 100 µM
same,TGI,SNB-75 CNS,> 100 µM
same,TGI,SR leukemia,> 100 µM
same,TGI,DMS 273 small cell lung,> 100 µM
same,TGI,NCI-H460 lung,> 100 µM
same,TGI,XF 498 CNS,> 100 µM
same,TGI,COLO 205 colon,> 100 µM
same,TGI,RPMI-8226 leukemia,> 100 µM
same,TGI,M14 melanoma,> 100 µM
same,TGI,ACHN renal,> 100 µM
same,TGI,SK-MEL-5 melanoma,> 100 µM
same,TGI,NCI-H23 lung,> 100 µM
same,TGI,OVCAR-5 ovarian,> 100 µM
same,TGI,HCC-2998 colon,> 100 µM
same,TGI,HCT-15 colon,> 100 µM
same,TGI,MALME-3M melanoma,> 100 µM
same,TGI,SNB-19 CNS,> 100 µM
same,TGI,SN12C renal,> 100 µM
same,TGI,UACC-257 melanoma,> 100 µM
same,TGI,SNB-78 CNS,> 100 µM
same,TGI,UO-31 renal,> 100 µM
same,TGI,U251 CNS,> 100 µM
same,TGI,KM20L2 colon,> 100 µM
same,TGI,RXF 393 renal,> 100 µM
same,TGI,CAKI-1 renal,> 100 µM
same,TGI,HL-60(TB) leukemia,> 100 µM
same,TGI,HOP-18 NSCLC,> 100 µM
same,TGI,RXF-631 renal,> 100 µM
CCOc1ccc(NC(=O)CC2C(=O)Nc3ccccc3S2=O)cc1 (stereo not given),TGI,K-562 leukemia,> 100 µM
same,TGI,A549 NSCLC,> 100 µM
same,TGI,M19-MEL melanoma,> 100 µM
same,TGI,OVCAR-8 ovarian,> 85.8 µM
same,TGI,SF-539 CNS,> 100 µM
same,TGI,SF-268 CNS,> 100 µM
same,TGI,TK-10 renal,> 96.2 µM
same,TGI,SK-OV-3 ovarian,> 100 µM
same,TGI,SW-620 colon,> 100 µM
same,TGI,LXFL 529 NSCLC,> 100 µM
same,TGI,OVCAR-3 ovarian,> 78.7 µM
same,TGI,SF-295 CNS,> 100 µM
same,TGI,CCRF-CEM leukemia,> 100 µM
same,TGI,HT29 colon,> 100 µM
same,TGI,SK-MEL-28 melanoma,> 100 µM
same,TGI,LOX IMVI melanoma,> 100 µM
same,TGI,A498 renal,> 78.5 µM
same,TGI,UACC-62 melanoma,> 46.4 µM
same,TGI,MOLT-4 leukemia,> 100 µM
same,TGI,SK-MEL-2 melanoma,> 100 µM
same,TGI,NCI-H522 lung,> 100 µM
same,TGI,KM12 colon,> 100 µM
same,TGI,EKVX NSCLC,> 46.4 µM
same,TGI,DLD-1 colon,> 100 µM
same,TGI,786-0 renal,> 76.6 µM
same,TGI,NCI-H226 lung,> 86.7 µM
same,TGI,OVCAR-4 ovarian,> 70.2 µM
same,TGI,IGROV1 ovarian,> 100 µM
same,TGI,HOP-62 NSCLC,> 100 µM
same,TGI,HCT-116 colon,> 100 µM
same,TGI,SNB-75 CNS,50.6 µM
same,TGI,SR leukemia,> 88.5 µM
same,TGI,DMS 273 small cell lung,> 100 µM
same,TGI,NCI-H460 lung,> 100 µM
same,TGI,XF 498 CNS,74.4 µM
same,TGI,COLO 205 colon,> 100 µM
same,TGI,RPMI-8226 leukemia,> 100 µM
same,TGI,M14 melanoma,> 100 µM
same,TGI,ACHN renal,> 86.7 µM
same,TGI,SK-MEL-5 melanoma,> 100 µM
same,TGI,NCI-H23 lung,> 100 µM
same,TGI,OVCAR-5 ovarian,> 100 µM
same,TGI,HCC-2998 colon,> 100 µM
same,TGI,HCT-15 colon,> 100 µM
same,TGI,MALME-3M melanoma,> 100 µM
same,TGI,SNB-19 CNS,> 89.3 µM
same,TGI,SN12C renal,> 100 µM
same,TGI,UACC-257 melanoma,> 100 µM
same,TGI,SNB-78 CNS,> 100 µM
same,TGI,UO-31 renal,> 83.1 µM
same,TGI,U251 CNS,> 75.4 µM
same,TGI,KM20L2 colon,> 46.4 µM
same,TGI,HOP-92 NSCLC,> 70.6 µM
same,TGI,RXF 393 renal,66.9 µM
same,TGI,CAKI-1 renal,> 92.9 µM
same,TGI,HL-60(TB) leukemia,> 100 µM
same,TGI,HOP-18 NSCLC,> 100 µM
same,TGI,RXF-631 renal,> 100 µM
